Reference: patent EP3661951B1, “GENES AND METHODS FOR BIOTECHNOLOGICAL PRODUCTION AND COMPARTMENTALIZATION OF HIGH ADDED VALUE APOCAROTENOIDS” (Agenzia Nazionale Per Le Nuove Tecnologie, L'Energia E Lo …, priority 2017, dated 2019)

Tests used:
[1] = tested on: Crocus sativus CsABCC2 transporter (SEQ ID NO 14); experiment: In vitro transport assay ("transportomics") with yeast microsomes, inhibition by Probenecid; type: biochemical; settings: Probenecid 1 mM, microsomes pre-incubated 10 minutes at room temperature; saffron hydroalcoholic extract as substrate; net ATP-dependent transport after 15 minutes; S. cerevisiae ybt1 microsomes
Experimental: (§1) A new in vitro assay was prepared, differing from the classical transportation assay wherein the vesicles are left to incubate for pre-established periods of time with the putative substrate, washed, lysed and the content analysed by liquid chromatography coupled to a UV/visible detector. With respect to the works existing in literature relating the in-vitro functional characterization of transporters, the present invention introduces the concept of "transportomics": the assay is based upon the transportation analysis, performed by LC-HRMS, of all molecules existing in the saffron extract. This approach, providing the use of a raw extract instead of commercial purified standards, allows to characterize the transportation even of molecules which are not commercially available; moreover, as it is based upon data obtained with high resolution mass spectrometry, rather than with photodiode series detector (PDA), the system is extremely sensitive and it allows to appreciate the transportation of low abundant metabolites.
(§2) With this method, then, it was observed that the two ABCC transporters are capable of transporting different crocins apart from some flavonoids (figure 10b, black bars). […]

[2] = tested on: Crocus sativus CsABCC1 transporter (SEQ ID NO 12); experiment: as above; type: biochemical; settings: Probenecid 1 mM, microsomes pre-incubated 10 minutes at room temperature; saffron hydroalcoholic extract as substrate; net ATP-dependent transport after 15 minutes; S. cerevisiae ybt1 microsomes
Experimental: as §1, §2

## CCCN(CCC)S(=O)(=O)c1ccc(C(=O)O)cc1 [Probenecid]
[1]
  transportation of saffron metabolites (crocins) in presence of Probenecid inhibitor: considerable transportation reduction
[2]
  transportation of saffron metabolites (crocins) in presence of Probenecid inhibitor: considerable transportation reduction
